The source of these data is patent publication US20250129103A1, “METHODS FOR TREATMENT OF CANCER” (Frontier Medicines Corporation, priority 2022, published 2025).

Values after ≈ are worked out from the molar mass of the structure shown. A value given as a limit tells only on which side of the number the result lay.

The target in data set [1] is KRAS G12C (GMPPNP-loaded) and cRAF (Ras-binding domain) interaction (Homo sapiens (Human), UniProt P01116, C118S/C51S/C80L/G12C). The data set can be described thus: Inhibition of KRAS G12C and cRAF binding (AlphaScreen). As to conditions: KRAS G12C loaded with GMPPNP, cRaf RBD, 2 hours preincubation; read-out: Raf-1 RBD K-Ras IC50. As for the experimental part: Compounds were diluted in 100% DMSO and each compound concentration was spotted at 200 nl/well onto low volume, white 384 well plates. […] KRAS G12C was preloaded with the GTP analogue Guanosine 5′-[β,γ-imido]triphosphate (GMPPNP). The KRAS G12C was diluted in 25 mM Hepes, pH 7.4, 150 mM NaCl, 5 mM MgCl2, 0.01% TritonX-100 and 10 μM GMPPNP and added at 10 ul/well to compound-spotted plates resulting in a DMSO concentration of 2%. Plates were incubated for 2 hours. A mixture of RBD and the AlphaScreen streptavidin donor and glutathione acceptor beads diluted in 25 mM Hepes, pH 7.4, 150 mM NaCl, 5 mM MgCl2, 0.01% TritonX-100 and 2% DMSO was then added at 10 ul/well and incubated for 60-90 minutes before the samples were read for emission at 570 nm after excitation of the donor beads at 680 nm. All incubations were performed at room temperature. The final top compound concentration was 50 μM with 1:3 titrations for 10-point dose response curves. […] IC50S were determined using nonlinear regression fit of [inhibitor] vs. response (4 parameters). […]
(Bead proximity is the source of the signal in Alpha formats.)

Data set [2] in a line: Determination of logD (1-octanol / phosphate buffer pH 7.4). In kind it is physicochemical. Conditions: for logD: 1-octanol/phosphate buffer, pH 7.4, pH 7.4, 1-octanol/phosphate buffer, read-out: Log D, pH 7.4. How it is done: Preparation of phosphate buffer saturated with 1-octanol: 10 mL of 100 mM phosphate buffer (pH 7.4) was added to 100 mL of 1-octanol. The mixture was shaken vigorously and left to stand at room temperature overnight.
Preparation of 1-octanol saturated with phosphate buffer: 10 mL of 1-octanol was added to 100 mL of 100 mM phosphate buffer (pH 7.4). The mixture was shaken vigorously and left to stand at room temperature overnight.
149 μL of phosphate buffer saturated with 1-octanol was added into 1st sample tube. 149 μL of 1-octanol saturated with phosphate buffer was added into the 2nd sample tube. The sample tubes were mixed vigorously and shaken for 1 hour at a speed of 800 rpm at room temperature. The sample tubes were subjected to centrifugation at 4000 rpm for 5 minutes at room temperature. Samples of the supernatant were taken from both tubes, diluted with an appropriate LCMS buffer, and analyzed on an LCMS instrument. LogD was calculated according to the following equation.

The nature of data set [3]: Determination of kinetic solubility (pH 7.4). It is filed as physicochemical. Conditions: for solubility kinetic at 2 h: phosphate buffer, pH 7.4, aqueous buffer, kinetic from dmso stock, 50 mM phosphate buffer pH 7.4, read-out: Ksol, pH 7.4. As for the experimental part:
490 μL of a 50 mM phosphate buffer (pH 7.4) was added to the sample solution. The mixture was vortexed for at least 2 minutes. The vial was shaken on a Barnstead shaker at 800 rpm at room temperature for 2 hours. The vial was centrifuged at 4000 rpm for 20 minutes. The Mini-UniPrep vial was compressed to prepare a filtrate, which was injected into an HPLC-UV and LC-MS/MS system. Kinetic solubility was calculated by referencing sample peak areas to a standard calibration curve.

KRAS G12C (GMPPNP-loaded) and cRAF (Ras-binding domain) interaction, sequence (P01116 other isoform, or with tags, fused parts or gaps G12C/C51S/C80L/C118S): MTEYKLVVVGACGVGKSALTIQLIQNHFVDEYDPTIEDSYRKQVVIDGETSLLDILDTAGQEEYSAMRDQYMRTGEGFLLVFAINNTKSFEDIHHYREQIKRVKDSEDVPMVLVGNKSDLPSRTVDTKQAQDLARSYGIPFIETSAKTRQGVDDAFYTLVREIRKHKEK

As usually defined, the IC50 is the concentration that gives 50% inhibition. With `Cc1cc(N)nc(C2Cc3nc(OC[C@@]45CCCN4C[C@H](F)C5)nc(N4CCN(C(=O)/C=C/CN5CCOCC5)[C@@H](CC#N)C4)c3CC2C)c1C(F)(F)F` (mixture of isomers) [Example 67, 2-((2S)-4-(7-(6-amino-4-methyl-3-(trifluoromethyl)pyridin-2-yl)-2-(((2R,7aS)-2-fluorotetrahydro-1H-pyrrolizin-7a(5H)-yl)methoxy)-6-methyl-5,6,7,8-tetrahydroquinazolin-4-yl)-1-((E)-4-morpholinobut-2-enoyl)piperazin-2-yl)acetonitrile], the IC50 in data set [1] was 0.01 to 0.1 µM. Also, in data set [2], the logD was 2.98.
With `N#CC[C@H]1CN(c2nc(OC[C@@]34CCCN3C[C@H](F)C4)nc3c(F)c(-c4cccc5cccc(Cl)c45)ncc23)CCN1C(=O)/C=C/c1nc([C@H]2C[C@@H]2F)no1` [Compound 15, 2-((S)-4-(7-(8-chloronaphthalen-1-yl)-8-fluoro-2-(((2R,7aS)-2-fluorotetrahydro-1H-pyrrolizin-7a(5H)-yl)methoxy)pyrido[4,3-d]pyrimidin-4-yl)-1-((E)-3-(3-((1R,2S)-2-fluorocyclopropyl)-1,2,4-oxadiazol-5-yl)acryloyl)piperazin-2-yl)acetonitrile], in data set [3], the solubility kinetic at 2 h is 0.01 µg/mL (≈ 0.013 µM). Besides, the IC50 in data set [1] was in the range of 0.1 to 0.5 µM. Also, in data set [2], the logD came out at 4.24.
For the molecule `N#CC[C@H]1CN(c2nc(OC[C@@]34CCCN3C[C@H](F)C4)nc3c(F)c(-c4cccc5cccc(Cl)c45)ncc23)CCN1C(=O)/C=C/c1nc(C(F)F)no1` [Compound 20], the solubility kinetic at 2 h in data set [3] was found to be 0.28 µg/mL (≈ 0.367 µM). In addition, the IC50 in data set [1] was less than 0.01 µM. In data set [2], the logD amounted to 2.61.
Regarding `Cn1cnc(/C=C/C(=O)N2CCN(c3nc(OCC45CCCN4CCC5)nc4c3CCN(c3cccc5cccc(Cl)c35)C4)C[C@@H]2CC#N)n1` [Compound 21], the solubility kinetic at 2 h in data set [3] amounted to 89.8 µg/mL (≈ 130 µM). Besides, the IC50 in data set [1] is more than 0.5 µM. For the same molecule, the logD in data set [2] was found to be 2.48.
Regarding `Cn1cnc(/C=C/C(=O)N2CCN(c3nc(OCC45CCCN4CCC5)nc4c3CCN(c3cccc5cccc(Cl)c35)C4)C[C@@H]2CC#N)c1` [Compound 22], the solubility kinetic at 2 h in data set [3] came to 77.7 µg/mL (≈ 112 µM). In data set [1], the IC50 was more than 0.5 µM. Further, the logD in data set [2] worked out at 2.92.
For `N#CC[C@H]1CN(c2nc(OCC34CCCN3CCC4)nc3c(F)c(-c4cccc5cccc(Cl)c45)ncc23)CCN1C(=O)/C=C/c1nc(C2CC2)no1` [Compound 24], the solubility kinetic at 2 h in data set [3] was found to be 38.5 µg/mL (≈ 52.4 µM). Moreover, the IC50 in data set [1] was 0.1 to 0.5 µM. Also, in data set [2], the logD came out at 2.71.
For `N#CC[C@H]1CN(c2nc(OCC34CCCN3CCC4)nc3c(F)c(-c4cccc5cccc(Cl)c45)ncc23)CCN1C(=O)/C=C/c1nc(C(F)F)no1` [Compound 27], the solubility kinetic at 2 h in data set [3] was 103 µg/mL (≈ 138 µM). In addition, the IC50 in data set [1] is less than 0.01 µM. Moreover, in data set [2], the logD worked out at 2.52.
With `Cc1noc(/C=C/C(=O)N2CCN(c3nc(OCC45CCCN4CCC5)nc4c3CCN(c3cccc5cccc(Cl)c35)C4)C[C@@H]2CC#N)n1` [Compound 28], in data set [3] (50 mM phosphate buffer pH 7.4), the “Ksol, pH 7.4 (ug/mL)” value was determined as 43.66 ug/mL. Further, the IC50 in data set [1] was 0.1 to 0.5 µM. Besides, the “Log D, pH 7.4” value in data set [2] (pH 7.4, 1-octanol/phosphate buffer) was 3.22.
Consider `Cc1nnc(/C=C/C(=O)N2CCN(c3nc(OCC45CCCN4CCC5)nc4c3CCN(c3cccc5cccc(Cl)c35)C4)C[C@@H]2CC#N)[nH]1` [Compound 29], for which the solubility kinetic at 2 h in data set [3] came to 74.7 µg/mL (≈ 108 µM). In addition, the IC50 in data set [1] was more than 0.5 µM. For the same molecule, the logD in data set [2] turned out to be 2.84.
On to `N#CC[C@H]1CN(c2nc(OCC34CCCN3CCC4)nc3c(F)c(-c4cccc5cccc(Cl)c45)ncc23)CCN1C(=O)/C=C/CN1CCOCC1` [Compound 149], for which the solubility kinetic at 2 h in data set [3] was determined as 106 µg/mL (≈ 147 µM). In addition, the IC50 in data set [1] lay within 0.01 to 0.1 µM.
As to `Cc1nccc(/C=C/C(=O)N2CCN(c3nc(OCC45CCCN4CCC5)nc4c(F)c(-c5cccc6ccc(F)c(Cl)c56)ncc34)C[C@@H]2CC#N)n1` [Compound 155], in data set [3], the solubility kinetic at 2 h was found to be 89.1 µg/mL (≈ 121 µM). Also, the IC50 in data set [1] was less than 0.01 µM.
`N#CC[C@H]1CN(c2nc(OC[C@@]34CCCN3C[C@H](F)C4)nc3c(F)c(-c4cccc(Cl)c4C4CC4)ncc23)CCN1C(=O)/C=C/CN1CC[C@@H](F)C1` [Compound 284]: the IC50 in data set [1] was less than 0.01 µM.
Regarding `CN1CCN(C/C=C/C(=O)N2CCN(c3nc(OC[C@@]45CCCN4C[C@H](F)C5)nc4c(F)c(-c5cccc(Cl)c5C5CC5)ncc34)C[C@@H]2CC#N)CC1` [Compound 286], the 50% inhibitory concentration (IC50) in data set [1] lay in the range of 0.01 to 0.1 µM.
Turning to `CO[C@@H]1CCN(C/C=C/C(=O)N2CCN(c3nc(OC[C@@]45CCCN4C[C@H](F)C5)nc4c(F)c(-c5cccc(Cl)c5C5CC5)ncc34)C[C@@H]2CC#N)C1` [Compound 288], the half-maximal inhibitory concentration (IC50) in data set [1] is less than 0.01 µM.
Regarding `Cc1nccc(/C=C/C(=O)N2CCN(c3nc(OC[C@@]45CCCN4C[C@H](F)C5)nc4c(F)c(-c5ccccc5C(F)F)ncc34)C[C@@H]2CC#N)n1` [Compound 290], in data set [1], the half-maximal inhibitory concentration (IC50) is more than 0.5 µM.
Still for that read-out and setting: for `N#CC[C@H]1CN(c2nc(OC[C@@]34CCCN3C[C@H](F)C4)nc3c(F)c(-c4cccc5cccc(Cl)c45)ncc23)CCN1C(=O)/C=C/CN1C[C@H]2COC[C@H]21` [Compound 291] the value was 0.01 to 0.1 µM; for `N#CC[C@H]1CN(c2nc(OC[C@@]34CCCN3C[C@H](F)C4)nc3c(F)c(-c4cccc(Cl)c4C(F)(F)F)ncc23)CCN1C(=O)/C=C/CN1CCOCC1` [Compound 296], less than 0.01 µM.
In the case of `C[C@@H]1CN(C/C=C/C(=O)N2CCN(c3nc(OC[C@@]45CCCN4C[C@H](F)C5)nc4c(F)c(-c5cccc(Cl)c5C5CC5)ncc34)C[C@@H]2CC#N)C[C@@H](C)O1` [Compound 301], in data set [1], the IC50 lay in the range of 0.01 to 0.1 µM.
In the case of `N#CC[C@H]1CN(c2nc(OC[C@@]34CCCN3C[C@H](F)C4)nc3c(F)c(-c4cccc5cccc(Cl)c45)ncc23)CCN1C(=O)/C=C/CN1CC[C@H](OC(F)F)C1` [Compound 303], the IC50 in data set [1] is less than 0.01 µM.
Take `N#CC[C@H]1CN(c2nc(OC[C@@]34CCCN3C[C@H](F)C4)nc3c(F)c(-c4cccc5cccc(Cl)c45)ncc23)CCN1C(=O)/C=C/CN1CC[C@@H](OC(F)F)C1` [Compound 304]: the IC50 in data set [1] was less than 0.01 µM.
As to `CCN1CC[C@@H]1/C=C/C(=O)N1CCN(c2nc(OC[C@@]34CCCN3C[C@H](F)C4)nc3c(F)c(-c4cccc(Cl)c4C4CC4)ncc23)C[C@@H]1CC#N` [Compound 312], in data set [1], the IC50 was 0.01 to 0.1 µM.
As for `CC(C)N1CC[C@@H]1/C=C/C(=O)N1CCN(c2nc(OC[C@@]34CCCN3C[C@H](F)C4)nc3c(F)c(-c4cccc(Cl)c4C4CC4)ncc23)C[C@@H]1CC#N` [Compound 313], the IC50 in data set [1] was 0.1 to 0.5 µM.
For `CC(=O)N1CCN(C/C=C/C(=O)N2CCN(c3nc(OC[C@@]45CCCN4C[C@H](F)C5)nc4c(F)c(-c5cccc6cccc(Cl)c56)ncc34)C[C@@H]2CC#N)CC1` [Compound 324], the IC50 in data set [1] is less than 0.01 µM.
Still for that read-out and setting: for `C=C(C)c1c(Cl)cccc1-c1ncc2c(N3CCN(C(=O)/C=C/CN4C5CCC4COC5)[C@@H](CC#N)C3)nc(OC[C@@]34CCCN3C[C@H](F)C4)nc2c1F` [Compound 326] the value was less than 0.01 µM.
As for `Cc1cc(N)nc(C2Cc3nc(OC[C@@]45CCCN4C[C@H](F)C5)nc(N4CCN(C(=O)/C=C/CN5CCOCC5)[C@@H](CC#N)C4)c3CC2C)c1C(F)(F)F` (stereo partly drawn) [Example 67, 2-((2S)-4-(7-(6-amino-4-methyl-3-(trifluoromethyl)pyridin-2-yl)-2-(((2R,7aS)-2-fluorotetrahydro-1H-pyrrolizin-7a(5H)-yl)methoxy)-6-methyl-5,6,7,8-tetrahydroquinazolin-4-yl)-1-((E)-4-morpholinobut-2-enoyl)piperazin-2-yl)acetonitrile], in data set [3], the solubility kinetic at 2 h amounted to 78.2 µg/mL (≈ 103 µM).
Turning to `Cc1cc(N)nc(C2Cc3nc(OC[C@@]45CCCN4C[C@H](F)C5)nc(N4CCN(C(=O)/C=C/C5CCN5C)[C@@H](CC#N)C4)c3CC2C)c1C(F)(F)F` (stereo partly drawn) [Example 68, 2-((2S)-4-(7-(6-amino-4-methyl-3-(trifluoromethyl)pyridin-2-yl)-2-(((2R,7aS)-2-fluorohexahydro-1H-pyrrolizin-7a-yl)methoxy)-6-methyl-5,6,7,8-tetrahydroquinazolin-4-yl)-1-((E)-3-(1-methylazetidin-2-yl)acryloyl)piperazin-2-yl)acetonitrile], in data set [3], the solubility kinetic at 2 h came out at 102 µg/mL (≈ 140 µM).
